Drawing on publication PMC10720369 (Frontiers in Plant Science, 2023), this text covers Km for one molecule.

The subject of the assay is ScAMT3;3. The following applies: labelled compound; 0-500 µM 15N-NH4+; 35-d-old N-starved plants; line 35S::ScAMT3;3 by results and Figure 4C (methods b28 say proScAMT3;3 line); residual qko uptake present; NH3 may be the transported.

Molecules are shown by their SMILES.

For `N` [NH4+], the Km worked out at 271 µM.
